Assays:
[1] = tested on: Chlamydia; test: Phase 2 study in men with non-gonococcal urethritis, eradication of Chlamydia; assay type: in vivo, human
From the text: The use of rifalazil in the treatment of PAOD is supported by both preclinical and clinical lines of evidence.
Due to the recalcitrant response of C. pneumoniae to antibiotic therapy, the duration of therapy is thought to be an important parameter for optimizing treatment. Previous large well-controlled randomized studies have tested long term antibiotic therapy in the CHD population. A longer term treatment schedule with rifalazil than was utilized in eradicating C. trachomatis in NGU (single dose) may represent a preferred therapeutic regimen for producing a clinically beneficial effect on C. pneumoniae in patients with PAOD. Further, dosing of PAOD patients with rifalazil for a duration of 8 weeks may further optimize therapeutic effect against C. pneumoniae in these patients. Chlamydia pneumoniae infects the vasculature, and to elicit significant antibacterial activity against this pathogen, longer courses of treatment than those directed at C. trachomatis (i.e., single dose) are preferred. Pharmacokinetic and pharmacodynamic modeling predict that this dosage will provide continuous plasma and tissue concentrations of rifalazil above the MIC90 for C. pneumoniae for over 9 weeks. A single dose of 25 mg rifalazil administered once per week for up to 4 weeks was not associated with significant adverse effects in Phase 1 studies. […]

[2] = Healthy volunteers, 25 or 50 mg once a week for 4 weeks, adverse events; assay type: in vivo, human
Experimental: In one study, healthy volunteers received 25 or 50 mg once a week for 4 weeks. The overall incidence of AEs was 33% after the first weekly dose, 12% after the second and third weekly dose, and 0% at the fourth weekly dose. No subject discontinued the study due to AEs, and no serious AEs were reported in this study. The predominant AEs reported in the rifalazil group but not in the placebo group included: back pain (2/6. 33%), chills (3/6, 50%), neck pain (1/6. 17%), insomnia, and a range of gastrointestinal (GI) disturbances such as anorexia, nausea, thirst and vomiting (all in 1/6 patients, 17%).
The lowest individual value for subjects receiving 25 mg/week was 2.2×10^3/mm^3 (Day 25), and for 50-mg/week subjects, 2.3×10^3/mm^3 (Day 11). All values returned to baseline within 2 weeks of cessation of dosing. […] The above normal values at 50 mg/week occurred in 1 subject, and were of moderate Grade 2 severity during the interval from approximately Day 15 to Day 78. […] All values returned to baseline levels within 2 weeks of cessation of dosing.
The phenomenon of accommodation or tolerance with repeat weekly dosing of rifalazil became evident during the course of the study for both the 25-mg and 50-mg doses. In the 25-mg dosage group, the peak incidence of AEs occurred in the first week and decreased substantially over the remaining weeks.

[3] = Phase 1 Study ABI-1648-006, multiple oral dose pharmacokinetics; conditions: for Tmax / AUC / Cmax / half-life: human, plasma; for AUC0-Tau/Dose Mean / Cmax/Dose Mean: normalized to 1 mg/kg
[4] = Phase 1 Study ABI-1648-009, food effect on PK of single 25-mg oral dose

CO[C@H]1/C=C/O[C@@]2(C)Oc3c(C)c(O)c4c(=O)c(c5oc6cc(N7CCN(CC(C)C)CC7)cc(O)c6nc-5c4c3C2=O)NC(=O)/C(C)=C\C=C\[C@H](C)[C@H](O)[C@@H](C)[C@@H](O)[C@@H](C)[C@H](OC(C)=O)[C@@H]1C [rifalazil, 3′-hydroxy-5′-(4-isobutyl-1-piperazinyl) benzoxazinorifamycin]
anti-chlamydial activity in patients with NGU ([1]; oral 25 mg): significant anti-chlamydial activity | patients in whom Chlamydia was eradicated ([1]; single oral dose): > 86% | subjects with low WBC counts ([2]; 25 mg/week): three of six | tolerability ([2]; 25 mg/week): fairly well tolerated | lowest individual WBC value ([2]; 25 mg/week, Day 25): 2.2×10^3 /mm^3 | subjects with low WBC counts ([2]; 50 mg/week): 6 of 8 | tolerability ([2]; 50 mg/week): not considered well tolerated | lowest individual WBC value ([2]; 50 mg/week, Day 11): 2.3×10^3 /mm^3 | mean AST and ALT values ([2]; 50 mg/week, not in the 25 mg/week group): transient increase | subjects with Grade 4 lymphocyte toxicity ([2]; 25-mg/week): 1 subject | time for WBC values to return to baseline after cessation of dosing ([2]; 25 and 50 mg/week): ≤ 2 weeks | subjects with Grade 4 lymphocyte toxicity ([2]; 50-mg/week): 3 subjects | overall incidence of AEs ([2]; after the first weekly dose): 33% | overall incidence of AEs ([2]; after the second and third weekly dose): 12% | overall incidence of AEs ([2]; at the fourth weekly dose): 0% | neck pain ([2]; rifalazil group (1/6)): 17% | back pain ([2]; rifalazil group (2/6)): 33% | chills ([2]; rifalazil group (3/6)): 50% | insomnia, anorexia, nausea, thirst and vomiting (each) ([2]; rifalazil group (all in 1/6 patients)): 17% | asthenia ([2]; rifalazil-treated groups): 33% | dizziness ([2]; rifalazil-treated groups): 50% | fever ([2]; rifalazil-treated groups): 67% | headache ([2]; rifalazil-treated groups): 67% | pain ([2]; rifalazil-treated groups): 50% | Tmax ([3]; both, po): 4 to 6.3 h | AUC ([3]; female, oral, 2.5 mg): 98.2 ng·h/mL | Cmax ([3]; female, oral, 2.5 mg): 7 ng/mL | Tmax ([3]; female, oral, 2.5 mg): 4.3 h | half-life ([3]; female, oral, 2.5 mg): 140 h | AUC ([3]; female, oral, 5 mg): 197 ng·h/mL | Cmax ([3]; female, oral, 5 mg): 14.3 ng/mL | Tmax ([3]; female, oral, 5 mg): 5.3 h | half-life ([3]; female, oral, 5 mg): 174 h | AUC ([3]; female, oral, 12.5 mg): 339 ng·h/mL | Cmax ([3]; female, oral, 12.5 mg): 19.1 ng/mL | Tmax ([3]; female, oral, 12.5 mg): 6.3 h | half-life ([3]; female, oral, 12.5 mg): 86.5 h | half-life ([3]; female, po): 86 to 140 h | AUC0-Tau/Dose Mean ([3]; females, 2.5 mg QD × 5 days): 2540.1 | Cmax/Dose Mean ([3]; females, 2.5 mg QD × 5 days): 184.1 | AUC0-Tau/Dose Mean ([3]; females, 5 mg QD × 5 days): 2539.0 | Cmax/Dose Mean ([3]; females, 5 mg QD × 5 days): 183.6 | AUC0-Tau/Dose Mean ([3]; females, 12.5 mg × 2 doses): 1614.0 | Cmax/Dose Mean ([3]; females, 12.5 mg × 2 doses): 90.6 | AUC ([3]; male, oral, 2.5 mg): 178 ng·h/mL | Cmax ([3]; male, oral, 2.5 mg): 8.5 ng/mL | Tmax ([3]; male, oral, 2.5 mg): 4.3 h | half-life ([3]; male, oral, 2.5 mg): 134 h | AUC ([3]; male, oral, 5 mg): 261 ng·h/mL | Cmax ([3]; male, oral, 5 mg): 17.3 ng/mL | Tmax ([3]; male, oral, 5 mg): 4 h | half-life ([3]; male, oral, 5 mg): 119 h | AUC ([3]; male, oral, 12.5 mg): 398 ng·h/mL | Cmax ([3]; male, oral, 12.5 mg): 20.9 ng/mL | Tmax ([3]; male, oral, 12.5 mg): 6.2 h | half-life ([3]; male, oral, 12.5 mg): 120 h | half-life ([3]; male, po): 118 to 134 h | AUC0-Tau/Dose Mean ([3]; males, 2.5 mg QD × 5 days): 5788.5 | Cmax/Dose Mean ([3]; males, 2.5 mg QD × 5 days): 279.2 | AUC0-Tau/Dose Mean ([3]; males, 5 mg QD × 5 days): 4152.6 | Cmax/Dose Mean ([3]; males, 5 mg QD × 5 days): 273.7 | AUC0-Tau/Dose Mean ([3]; males, 12.5 mg × 2 doses): 2357.9 | Cmax/Dose Mean ([3]; males, 12.5 mg × 2 doses): 124.2 | Tmax ([4]; male, human, plasma, oral, 25 mg): ~3 h | absorption (Cmax and AUC) fasted versus fed ([4]; overnight fast compared with 30% or 60% fat meal, single 25 mg): lower

From US20070112018A1, “Treatment of peripheral arterial occlusive disease” (priority 2005, published 2007)
